Here are results for 5 molecules from the supplement of paper PMC10307832.

The structures appear in SMILES notation.

The first assay relates to NCI-H1793. As to the kind of experiment: relative viability (nuclei count vs DMSO), 5 days (fraction); higher = more cells survive. The following applies: first compound 0.2 µM. In short, it runs like this: (§1)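 Nuclei were stained with Hoechst during a one-step fixation (final 0.05% Triton X-100, 1% formaldehyde, 1 ug/ml Hoechst) carried out 5 days after dosing, then counted on 4× images. The cells, lung cancer lines in 1536-well plates, had been dosed by pin tool the day after seeding with one drug alone or a fixed anchor-drug dose plus five library-drug doses (not always all listed) in √10 steps. Relative viability is the nuclei count in treated wells divided by that in vehicle wells, and each value is the median of duplicate plates.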
Take `COCC1(CO)C(=O)C2CCN1CC2` (stereo unspecified) [PRIMA-1MET] + Cc1nc(NC(=O)N2CCC[C@H]2C(N)=O)sc1-c1ccnc(C(C)(C)C(F)(F)F)c1 [Alpelisib] (partner 2 µM): the relative viability was 0.953.

The same assay, now with this note: first compound 0.6325 µM.
`COCC1(CO)C(=O)C2CCN1CC2` (stereo unspecified) [PRIMA-1MET] + CS(=O)(=O)N1CCN(Cc2cc3nc(-c4cccc5[nH]ncc45)nc(N4CCOCC4)c3s2)CC1 [Pictilisib] (partner 1 µM) came in with a relative viability of 0.251.
The molecule `COCC1(CO)C(=O)C2CCN1CC2` (stereo unspecified) [PRIMA-1MET] + CS(=O)(=O)CCNCc1ccc(-c2ccc3ncnc(Nc4ccc(OCc5cccc(F)c5)c(Cl)c4)c3c2)o1 [Lapatinib] (partner 2 µM) displayed a relative viability of 0.68.
The same measure, in the same setting: next, `COCC1(CO)C(=O)C2CCN1CC2` (stereo unspecified) [PRIMA-1MET] + C[C@]1(O)C[C@@H](c2nc(-c3ccc4ccc(-c5ccccc5)nc4c3)c3c(N)nccn32)C1 [Linsitinib] (partner 1 µM): 0.777.
`COCC1(CO)C(=O)C2CCN1CC2` (stereo unspecified) [PRIMA-1MET] + COc1cc2c(Oc3ccc(NC(=O)C4(C(=O)Nc5ccc(F)cc5)CC4)cc3F)ccnc2cc1OCCCN1CCOCC1 [Foretinib] (partner 0.25 µM): the relative viability turned out to be 0.563.
In turn, `COCC1(CO)C(=O)C2CCN1CC2` (stereo unspecified) [PRIMA-1MET] + Cc1nc(NC(=O)N2CCC[C@H]2C(N)=O)sc1-c1ccnc(C(C)(C)C(F)(F)F)c1 [Alpelisib] (partner 2 µM) came in with a relative viability of 0.676.

The same assay, now with this note: first compound 6.325 µM.
Molecule `COCC1(CO)C(=O)C2CCN1CC2` (stereo unspecified) [PRIMA-1MET] + CS(=O)(=O)N1CCN(Cc2cc3nc(-c4cccc5[nH]ncc45)nc(N4CCOCC4)c3s2)CC1 [Pictilisib] (partner 1 µM) had a relative viability of 0.343.
`COCC1(CO)C(=O)C2CCN1CC2` (stereo unspecified) [PRIMA-1MET] + CS(=O)(=O)CCNCc1ccc(-c2ccc3ncnc(Nc4ccc(OCc5cccc(F)c5)c(Cl)c4)c3c2)o1 [Lapatinib] (partner 2 µM) gave a relative viability of 0.592.
On the same count and under the same terms, the same measure for `COCC1(CO)C(=O)C2CCN1CC2` (stereo unspecified) [PRIMA-1MET] + C[C@]1(O)C[C@@H](c2nc(-c3ccc4ccc(-c5ccccc5)nc4c3)c3c(N)nccn32)C1 [Linsitinib] (partner 1 µM): 1.04; for `COCC1(CO)C(=O)C2CCN1CC2` (stereo unspecified) [PRIMA-1MET] + COc1cc2c(Oc3ccc(NC(=O)C4(C(=O)Nc5ccc(F)cc5)CC4)cc3F)ccnc2cc1OCCCN1CCOCC1 [Foretinib] (partner 0.25 µM): 0.846; for `COCC1(CO)C(=O)C2CCN1CC2` (stereo unspecified) [PRIMA-1MET] + Cc1nc(NC(=O)N2CCC[C@H]2C(N)=O)sc1-c1ccnc(C(C)(C)C(F)(F)F)c1 [Alpelisib] (partner 2 µM): 0.736.

Staying with this assay, now noted: first compound 20 µM.
As for `COCC1(CO)C(=O)C2CCN1CC2` (stereo unspecified) [PRIMA-1MET] + CS(=O)(=O)N1CCN(Cc2cc3nc(-c4cccc5[nH]ncc45)nc(N4CCOCC4)c3s2)CC1 [Pictilisib] (partner 1 µM), the relative viability came out at 0.325.
As to `COCC1(CO)C(=O)C2CCN1CC2` (stereo unspecified) [PRIMA-1MET] + CS(=O)(=O)CCNCc1ccc(-c2ccc3ncnc(Nc4ccc(OCc5cccc(F)c5)c(Cl)c4)c3c2)o1 [Lapatinib] (partner 2 µM), the relative viability amounted to 0.646.
Same read-out and setting: the same measure for `COCC1(CO)C(=O)C2CCN1CC2` (stereo unspecified) [PRIMA-1MET] + C[C@]1(O)C[C@@H](c2nc(-c3ccc4ccc(-c5ccccc5)nc4c3)c3c(N)nccn32)C1 [Linsitinib] (partner 1 µM): 0.581.
The molecule `COCC1(CO)C(=O)C2CCN1CC2` (stereo unspecified) [PRIMA-1MET] + COc1cc2c(Oc3ccc(NC(=O)C4(C(=O)Nc5ccc(F)cc5)CC4)cc3F)ccnc2cc1OCCCN1CCOCC1 [Foretinib] (partner 0.25 µM) displayed a relative viability of 0.491.
Same read-out and setting: the same measure for `COCC1(CO)C(=O)C2CCN1CC2` (stereo unspecified) [PRIMA-1MET] + Cc1nc(NC(=O)N2CCC[C@H]2C(N)=O)sc1-c1ccnc(C(C)(C)C(F)(F)F)c1 [Alpelisib] (partner 2 µM): 0.707.

Another assay deals with NCI-H1944. The description is as above. The following applies: first compound 0.2 µM. In outline:
as §1
`COCC1(CO)C(=O)C2CCN1CC2` (stereo unspecified) [PRIMA-1MET] + CS(=O)(=O)N1CCN(Cc2cc3nc(-c4cccc5[nH]ncc45)nc(N4CCOCC4)c3s2)CC1 [Pictilisib] (partner 1 µM) displayed a relative viability of 0.332.
Still for that read-out and setting: the same measure for `COCC1(CO)C(=O)C2CCN1CC2` (stereo unspecified) [PRIMA-1MET] + CS(=O)(=O)CCNCc1ccc(-c2ccc3ncnc(Nc4ccc(OCc5cccc(F)c5)c(Cl)c4)c3c2)o1 [Lapatinib] (partner 2 µM): 0.971; for `COCC1(CO)C(=O)C2CCN1CC2` (stereo unspecified) [PRIMA-1MET] + C[C@]1(O)C[C@@H](c2nc(-c3ccc4ccc(-c5ccccc5)nc4c3)c3c(N)nccn32)C1 [Linsitinib] (partner 1 µM): 1.27.
Same read-out and setting: next, `COCC1(CO)C(=O)C2CCN1CC2` (stereo unspecified) [PRIMA-1MET] + COc1cc2c(Oc3ccc(NC(=O)C4(C(=O)Nc5ccc(F)cc5)CC4)cc3F)ccnc2cc1OCCCN1CCOCC1 [Foretinib] (partner 0.25 µM): 1.02; `COCC1(CO)C(=O)C2CCN1CC2` (stereo unspecified) [PRIMA-1MET] + Cc1nc(NC(=O)N2CCC[C@H]2C(N)=O)sc1-c1ccnc(C(C)(C)C(F)(F)F)c1 [Alpelisib] (partner 2 µM): 1.01.

Still in this assay, the particulars now being: first compound 0.6325 µM.
For `COCC1(CO)C(=O)C2CCN1CC2` (stereo unspecified) [PRIMA-1MET] + CS(=O)(=O)N1CCN(Cc2cc3nc(-c4cccc5[nH]ncc45)nc(N4CCOCC4)c3s2)CC1 [Pictilisib] (partner 1 µM), the relative viability amounted to 0.324.
`COCC1(CO)C(=O)C2CCN1CC2` (stereo unspecified) [PRIMA-1MET] + CS(=O)(=O)CCNCc1ccc(-c2ccc3ncnc(Nc4ccc(OCc5cccc(F)c5)c(Cl)c4)c3c2)o1 [Lapatinib] (partner 2 µM) came in with a relative viability of 0.6.
Still for that read-out and setting: next, `COCC1(CO)C(=O)C2CCN1CC2` (stereo unspecified) [PRIMA-1MET] + C[C@]1(O)C[C@@H](c2nc(-c3ccc4ccc(-c5ccccc5)nc4c3)c3c(N)nccn32)C1 [Linsitinib] (partner 1 µM): 0.95; `COCC1(CO)C(=O)C2CCN1CC2` (stereo unspecified) [PRIMA-1MET] + COc1cc2c(Oc3ccc(NC(=O)C4(C(=O)Nc5ccc(F)cc5)CC4)cc3F)ccnc2cc1OCCCN1CCOCC1 [Foretinib] (partner 0.25 µM): 0.789; `COCC1(CO)C(=O)C2CCN1CC2` (stereo unspecified) [PRIMA-1MET] + Cc1nc(NC(=O)N2CCC[C@H]2C(N)=O)sc1-c1ccnc(C(C)(C)C(F)(F)F)c1 [Alpelisib] (partner 2 µM): 0.719.

The assay is the same for the next values; noted with them: first compound 2 µM.
As for `COCC1(CO)C(=O)C2CCN1CC2` (stereo unspecified) [PRIMA-1MET] + COc1cc2c(Oc3ccc(NC(=O)C4(C(=O)Nc5ccc(F)cc5)CC4)cc3F)ccnc2cc1OCCCN1CCOCC1 [Foretinib] (partner 0.25 µM), the relative viability came to 0.837.

The same assay, now with this note: first compound 6.325 µM.
In turn, `COCC1(CO)C(=O)C2CCN1CC2` (stereo unspecified) [PRIMA-1MET] + CS(=O)(=O)N1CCN(Cc2cc3nc(-c4cccc5[nH]ncc45)nc(N4CCOCC4)c3s2)CC1 [Pictilisib] (partner 1 µM) gave a relative viability of 0.328.
`COCC1(CO)C(=O)C2CCN1CC2` (stereo unspecified) [PRIMA-1MET] + CS(=O)(=O)CCNCc1ccc(-c2ccc3ncnc(Nc4ccc(OCc5cccc(F)c5)c(Cl)c4)c3c2)o1 [Lapatinib] (partner 2 µM) came in with a relative viability of 0.836.
Regarding `COCC1(CO)C(=O)C2CCN1CC2` (stereo unspecified) [PRIMA-1MET] + C[C@]1(O)C[C@@H](c2nc(-c3ccc4ccc(-c5ccccc5)nc4c3)c3c(N)nccn32)C1 [Linsitinib] (partner 1 µM), the relative viability turned out to be 1.27.
Same read-out and setting: the same measure for `COCC1(CO)C(=O)C2CCN1CC2` (stereo unspecified) [PRIMA-1MET] + COc1cc2c(Oc3ccc(NC(=O)C4(C(=O)Nc5ccc(F)cc5)CC4)cc3F)ccnc2cc1OCCCN1CCOCC1 [Foretinib] (partner 0.25 µM): 0.881.
